Values quoted from earlier work as cited in patent publication US20150297310A1, “METHODS FOR SELECTING A TREATMENT FOR CANCER” (priority 2014, published 2015).

Tested on: AB1-HA tumor
Details: AB1-HA tumor model, CTX treatment at Day 9

O=P1(N(CCCl)CCCl)NCCCO1 (stereo not shown) [CTX, Cyclophosphamide]
cure rate: 75%
